Each structure is given as a SMILES string.

High affinity nerve growth factor receptor, sequence (P04629 whole entry): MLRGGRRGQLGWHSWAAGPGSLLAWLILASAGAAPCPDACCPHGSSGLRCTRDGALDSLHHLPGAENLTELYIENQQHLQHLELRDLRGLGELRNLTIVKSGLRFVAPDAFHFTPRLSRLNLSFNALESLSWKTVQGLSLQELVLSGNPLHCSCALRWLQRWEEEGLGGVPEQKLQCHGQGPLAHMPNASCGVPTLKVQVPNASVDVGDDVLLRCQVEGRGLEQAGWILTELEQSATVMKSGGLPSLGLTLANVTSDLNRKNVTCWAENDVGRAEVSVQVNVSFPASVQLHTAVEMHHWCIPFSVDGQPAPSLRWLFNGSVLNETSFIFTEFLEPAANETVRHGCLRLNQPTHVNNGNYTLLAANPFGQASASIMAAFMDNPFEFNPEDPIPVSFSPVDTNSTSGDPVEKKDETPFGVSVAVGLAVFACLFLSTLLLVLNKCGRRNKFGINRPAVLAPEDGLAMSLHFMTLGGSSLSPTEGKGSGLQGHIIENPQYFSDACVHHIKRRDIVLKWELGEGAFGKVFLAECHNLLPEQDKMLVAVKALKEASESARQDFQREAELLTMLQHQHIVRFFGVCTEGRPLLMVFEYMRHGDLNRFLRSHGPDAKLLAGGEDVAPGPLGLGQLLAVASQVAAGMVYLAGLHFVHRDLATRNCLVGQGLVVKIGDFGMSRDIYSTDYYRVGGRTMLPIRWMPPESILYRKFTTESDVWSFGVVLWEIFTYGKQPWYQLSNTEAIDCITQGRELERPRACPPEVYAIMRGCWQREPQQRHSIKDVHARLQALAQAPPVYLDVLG

The assay addresses High affinity nerve growth factor receptor (Homo sapiens, UniProt P04629). Kind of assay: Inhibition of TrkA (unknown origin) using fluorescently labeled peptide substrate after 3 hrs.
The term EC50 denotes the concentration needed to bring the measured effect to its halfway point. Regarding `CC(C)N(Cc1c[nH]c2ncccc12)C(=O)Nc1ccc(OC(F)(F)F)cc1`, a half-maximal effect (EC50) was put at 0.0113 µM.
The result for `CC1(C)CN(c2ccc(OC(F)(F)F)cc2)C(=O)N1Cc1cccc(-c2nccs2)c1` reads 1.01 µM.
To `CC(C)N(Cc1c[nH]c2ncccc12)C(=O)Nc1ccc(SC(F)(F)F)cc1` belongs 0.0065 µM.

Source of the values: ChEMBL document CHEMBL3108681, “Inhibitors of Tropomyosin-Receptor Kinases (Trk's): Potential Pain Therapy and More” (ACS Med Chem Lett, 2014).
